Data reported in paper PMC11671014 (PLOS Pathogens, 2024).
Entries after “also recorded” stand apart in the source; their conditions may differ.

Key:
[1] = tested on: P. falciparum (3D7, ring stage) cultures; assay: P. falciparum 3D7 72-h growth inhibition, lactate dehydrogenase (PfLDH) assay; format: cell-based; conditions: Plasmodium falciparum, 72 h exposure
Experimental: Routine analyses of antimalarial activity against P. falciparum 3D7 was tested by TCGLS (Kolkata, India) using the lactate dehydrogenase (PfLDH) growth inhibition assay as previously described. […] P. falciparum strain (3D7) was obtained from BEI Resources.

[2] = biological target: T1, UAE (ubiquitin activating enzyme) (Homo sapiens, UniProt P22314); assay: UAE E1-E2 transthiolation HTRF assay; format: biochemical
T1 sequence (P22314 1-1058): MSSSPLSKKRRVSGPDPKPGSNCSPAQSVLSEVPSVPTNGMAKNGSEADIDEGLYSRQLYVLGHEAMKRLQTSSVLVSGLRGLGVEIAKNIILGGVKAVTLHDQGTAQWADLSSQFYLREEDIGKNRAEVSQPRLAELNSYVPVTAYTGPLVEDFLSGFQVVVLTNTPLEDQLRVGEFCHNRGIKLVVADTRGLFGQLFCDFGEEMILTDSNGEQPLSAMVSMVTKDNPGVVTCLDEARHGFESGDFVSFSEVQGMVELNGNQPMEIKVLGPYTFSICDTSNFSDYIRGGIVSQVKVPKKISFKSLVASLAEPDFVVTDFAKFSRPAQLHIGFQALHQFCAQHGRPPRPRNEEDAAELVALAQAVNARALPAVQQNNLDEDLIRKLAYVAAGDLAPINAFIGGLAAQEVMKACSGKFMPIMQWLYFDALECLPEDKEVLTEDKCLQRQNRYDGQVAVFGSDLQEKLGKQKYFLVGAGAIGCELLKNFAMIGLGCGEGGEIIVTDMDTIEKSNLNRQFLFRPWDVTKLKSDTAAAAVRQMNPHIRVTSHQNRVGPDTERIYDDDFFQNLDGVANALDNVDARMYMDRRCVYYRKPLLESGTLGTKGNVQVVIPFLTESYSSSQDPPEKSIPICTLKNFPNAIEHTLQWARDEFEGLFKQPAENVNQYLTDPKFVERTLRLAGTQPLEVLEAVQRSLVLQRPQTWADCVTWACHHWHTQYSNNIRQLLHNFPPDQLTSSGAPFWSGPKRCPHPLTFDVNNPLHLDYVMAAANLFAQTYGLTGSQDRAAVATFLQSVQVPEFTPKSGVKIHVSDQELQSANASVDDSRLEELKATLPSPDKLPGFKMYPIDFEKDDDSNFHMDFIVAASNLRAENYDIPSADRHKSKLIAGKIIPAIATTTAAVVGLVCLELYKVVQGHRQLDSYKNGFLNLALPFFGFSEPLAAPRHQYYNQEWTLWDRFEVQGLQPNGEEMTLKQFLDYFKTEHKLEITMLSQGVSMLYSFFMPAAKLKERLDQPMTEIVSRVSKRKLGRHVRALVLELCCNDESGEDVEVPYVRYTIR
Text: (§1) An Homogeneous Time-Resolved Fluorescence (HTRF) enzyme assay was employed to evaluate compound activity against ATG7 as previously described. In this assay, a Flag-tagged ATG8 homolog (GABA type A receptor-associated protein; GABARAP) is activated by ATG7 and then transthiolated to a GST-tagged E2 (ATG3). The product of the enzyme reaction, Flag-GABARAP-ATG3-GST, is quantified by measuring FRET between Europium-Cryptate labelled monoclonal anti-Flag M2 (FLAG M2-Eu cryptate; Revvity, Cat# 61FG2KLB) and […] (Anti-GST IgG conjugated to SureLight-Allophycocyanin) (Revvity, Cat# AD0059G)). The activation and transthiolation of ubiquitin by UAE, activation and transthiolation of NEDD8 by NAE and activation and transthiolation of SUMO by SAE were all assayed in a similar fashion with appropriately tagged ubiquitin-like proteins and E2 conjugating enzymes as described.

[3] = biological target: T2, SAE (SUMO-activating enzyme) (Homo sapiens, UniProt Q9UBT2); assay: SAE E1-E2 transthiolation HTRF assay; format: biochemical
T2 sequence (Q9UBT2 1-640): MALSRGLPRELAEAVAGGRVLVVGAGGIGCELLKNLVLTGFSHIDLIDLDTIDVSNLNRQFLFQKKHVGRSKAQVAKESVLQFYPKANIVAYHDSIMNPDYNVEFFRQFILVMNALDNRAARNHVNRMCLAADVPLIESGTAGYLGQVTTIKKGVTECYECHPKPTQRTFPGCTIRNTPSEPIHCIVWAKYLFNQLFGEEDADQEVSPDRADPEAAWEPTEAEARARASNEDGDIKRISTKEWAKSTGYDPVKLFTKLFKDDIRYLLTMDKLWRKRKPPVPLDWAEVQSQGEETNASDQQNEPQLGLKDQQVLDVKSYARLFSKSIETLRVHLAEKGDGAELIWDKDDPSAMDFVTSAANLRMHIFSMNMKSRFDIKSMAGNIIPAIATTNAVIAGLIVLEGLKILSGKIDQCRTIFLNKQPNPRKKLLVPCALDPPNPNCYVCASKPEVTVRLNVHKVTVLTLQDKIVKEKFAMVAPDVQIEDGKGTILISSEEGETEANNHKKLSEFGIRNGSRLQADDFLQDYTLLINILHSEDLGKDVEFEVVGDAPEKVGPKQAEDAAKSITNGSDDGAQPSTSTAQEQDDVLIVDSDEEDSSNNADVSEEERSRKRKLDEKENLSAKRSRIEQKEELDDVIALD
T2 sequence (Q9UBE0 1-346 partner): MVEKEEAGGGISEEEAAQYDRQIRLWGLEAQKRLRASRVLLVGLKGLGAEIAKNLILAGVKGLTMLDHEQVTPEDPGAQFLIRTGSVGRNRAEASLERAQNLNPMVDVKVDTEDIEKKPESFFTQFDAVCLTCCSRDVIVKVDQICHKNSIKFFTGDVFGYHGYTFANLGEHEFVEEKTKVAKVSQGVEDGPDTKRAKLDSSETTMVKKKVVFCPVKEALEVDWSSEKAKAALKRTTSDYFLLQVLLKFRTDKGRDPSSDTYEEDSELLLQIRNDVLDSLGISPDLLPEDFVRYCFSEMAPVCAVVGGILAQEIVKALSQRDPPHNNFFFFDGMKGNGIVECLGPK
Text: as §1

Row | SMILES | IC50 [1] [µM] | IC50 [2] [µM] | IC50 [3] [µM] | activity against SAE (in words) [3] | activity against UAE (in words) ([2]; human UAE in vitro)
1 | CCOc1nn([C@@H]2O[C@H](COS(N)(=O)=O)[C@@H](O)[C@H]2O)c2ncnc(N)c12 [ML676] | 0.0028 ± 0.0002 | 73.4 ± 3.5 | 31.4 ± 5.7 |  | 
2 | Nc1ncnc2c1c(C(F)(F)F)nn2[C@@H]1O[C@H](COS(N)(=O)=O)[C@@H](O)[C@H]1O [ML107] | 0.0042 ± 0.0005 | 22.9 ± 0.7 | 78.5 ± 6.2 |  | 
3 | CC(C)Oc1nn([C@@H]2O[C@H](COS(N)(=O)=O)[C@@H](O)[C@H]2O)c2ncnc(N)c12 [ML723] | 0.0025 ± 0.0006 | > 100 | > 100 |  | 
4 | CCc1nn([C@@H]2O[C@H](COS(N)(=O)=O)[C@@H](O)[C@H]2O)c2ncnc(N)c12 [ML681] | 0.0034 ± 0.0001 | 8.7 ± 0.6 | 22.4 ± 3.1 |  | 
5 | Nc1ncnc2c1c(Oc1ccccc1)nn2[C@@H]1O[C@H](COS(N)(=O)=O)[C@@H](O)[C@H]1O [ML470] | 0.0448 ± 0.0082 | > 100 | > 100 |  | 
6 | Nc1ncnc2c1c(OC(F)F)nn2[C@@H]1O[C@H](COS(N)(=O)=O)[C@@H](O)[C@H]1O [ML901] | 0.0028 ± 0.0002 | 5.39 ± 0.16 | > 100 | no activity | 
7 | CC(C)c1nn([C@@H]2O[C@H](COS(N)(=O)=O)[C@@H](O)[C@H]2O)c2ncnc(N)c12 [ML471, ((2R,3S,4R,5R)-5-(4-amino-3-isopropyl-1H-pyrazolo[3,4-d]pyrimidin-1-yl)-3,4-dihydroxytetrahydrofuran-2-yl)methyl sulfamate] | 0.0015 ± 0.0002 | 85.7 ± 6.5 | > 100 | no or very little activity | no inhibitory activity; also recorded: no or very little activity
